According to patent publication US11753407B2, “Compounds for treating spinal muscular atrophy” (PTC Therapeutics, Inc., priority 2012, dated 2023):

Assays:
[1] = tested on: SMN2 mRNA in tissues of C/C-allele SMA mice; test: Endogenous SMN2 mRNA end-point semi-quantitative RT-PCR splicing assay in animal tissues; format: in vivo; conditions: brain and muscle, BID oral gavage 10 days, end-point RT-PCR (FIG. 7)
Description: The endpoint reverse transcription-PCR (RT-PCR) splicing assay is used to quantify the levels of the full length and Δ7 SMN2 mRNA in tissues from mice treated with test compound.
Protocol. C/C-allele SMA mice are treated by oral gavage BID for 10 days with test compounds in 0.5% HPMC and 0.1% Tween-80. Tissue samples are collected and snap frozen for RNA purification.
Tissue samples (20-40 mg) are homogenized in QIAzol Lysis Reagent for 2 minutes at 20 Hz in the TissueLyser II using one stainless steel bead. After addition of chloroform, the homogenate is separated into aqueous and organic phases by centrifugation. RNA partitioned to the upper, aqueous phase is extracted and ethanol is added to provide appropriate binding conditions. The sample is then applied to the RNeasy spin column from the RNeasy Mini Kit, where total RNA binds to the membrane. The RNA is eluted in RNase-free water then stored at −20° C.
SMN2 spliced products are identified using the following amplification primers in Table 8. These primers hybridize to a nucleotide sequence in exon 6 (SMN Forward D, SEQ ID NO. 13) (nucleotide 22 to nucleotide 46) and exon 8 (SMN Reverse C, SEQ ID NO. 12), common to human SMN1 and SMN2 mRNA.
To synthesize cDNA, combine 1 μL of RNA solution (25-50 ng), 4 μL of 5× iScript reaction mix, 1 μL of reverse transcriptase, and 10 μL of water are combined and incubates 25° C. for 5 min followed by 42° C. for 30 min followed by 85° C. for 5 min. The cDNA solution is stored at −20° C.
To perform endpoint PCR, 5 μL of cDNA, 0.2 μL of 100 μM forward primer, 0.2 μL of 100 μM reverse primer, and 22.5 μL of polymerase super mix are combined in a 96 well semiskirted PCR plate. PCR is carried out at the following temperatures for the indicated time: Step 1: 94° C. (2 min), Step 2: 94° C. (30 sec), Step 3: 55° C. (30 sec), Step 4: 68° C. (1 min), then repeat Steps 2 to 4 for a total of 33 cycles, then hold at 4° C.
10 μL of each PCR sample is electrophoretically separated on a 2% agarose E-gel for 14 minutes stained with dsDNA staining reagents (e.g., ethidium bromide) and visualized using a gel imager.

[2] = tested on: SMN2 mRNA in GM03813 SMA patient cells; test: Endogenous SMN2 mRNA RT-qPCR splicing assay in cultured cells; format: cell-based, human; conditions: Type 1 SMA patient fibroblasts, increasing concentrations, 24 hr, versus vehicle (FIG. 4)
Description: The reverse transcription-quantitative PCR-based (RT-qPCR) assay is used to quantify the levels of the full length and Δ7 SMN2 mRNA in primary cells and cell lines containing the SMN2 gene treated with a test compound.
Protocol. GM03813 SMA patient cells (5,000 cells/well) are seeded in 200 μL of cell culture medium (DMEM plus 10% FBS) in 96-well flat-bottom plates and the plate is immediately swirled to ensure proper dispersal of cells, forming an even monolayer of cells. Cells are allowed to attach for at least 4-6 hrs. Test compounds are serially diluted 3.16-fold in 100% DMSO to generate a 7-point concentration curve. A solution of test compound (1 μL, 200× in DMSO) is added to each test well and 1 μL DMSO is added to each control well. The plate is incubated for 24 hrs in a cell culture incubator (37° C., 5% CO2, 100% relative humidity). The cells are then lysed in Cells-To-Ct lysis buffer and the lysate is stored at −80° C.
SMN2-specific spliced products and GAPDH mRNA are identified using the following primers and probes in Table 5. Primer SMN FL Forward B (SEQ ID NO. 7) hybridizes to a nucleotide sequence in exon 7 (nucleotide 32 to nucleotide 54) and exon 8 (nucleotide 1 to nucleotide 4), primer SMN Δ7 Forward B (SEQ ID NO. 8) hybridizes to a nucleotide sequence in exon 6 (nucleotide 87 to nucleotide 111) and exon 8 (nucleotide 1 to nucleotide 3), primer SMN Reverse B (SEQ ID NO. 9) hybridizes to a nucleotide sequence in exon 8 (nucleotide 39 to nucleotide 62), probe SMN Probe B (SEQ ID NO. 10) hybridizes to a nucleotide sequence in exon 8 (nucleotide 7 to nucleotide 36). These primers and probes hybridize to nucleotide sequences common to human SMN1 and SMN2 mRNA. Since the SMA patient cells used in Example 3 contain only the SMN2 gene, RT-qPCR can quantify only SMN2 full-length and Δ7 mRNA.
The SMN forward and reverse primers are used at final concentrations of 0.4 μM. The SMN probe is used at a final concentration of 0.15 μM. GAPDH primers are used at final concentrations of 0.1 μM and the probe at 0.075 μM. […]
The increase of SMN2 FL and decrease in SMN2 Δ7 mRNA relative to those in cells treated with vehicle control are determined from real-time PCR data using a modified ΔΔCt method (as described in Livak and Schmittgen, Methods, 2001, 25:402-8). The amplification efficiency (E) is calculated from the slope of the amplification curve for SMN2 FL, SMN2 Δ7, and GAPDH individually. The abundances of SMN2 FL, SMN2 Δ7, and GAPDH are then calculated as (1+E)^−Ct, where Ct is the threshold value for each amplicon. […]

| Compound | SMN2 FL mRNA [1] | SMN2 Δ7 mRNA [1] | SMN2 FL mRNA [2] | SMN2 Δ7 mRNA [2] |
| --- | --- | --- | --- | --- |
| COc1ccc(-c2cc(=O)n3cc(N4CCNCC4)ccc3n2)cc1OC [Cpd 6, 2-(3,4-dimethoxyphenyl)-7-(piperazin-1-yl)-4H-pyrido[1,2-a]pyrimidin-4-one] | progressively more SMN2 FL mRNA | less SMN2 Δ7 mRNA | progressively more SMN2 FL mRNA | less SMN2 Δ7 mRNA |
| Cc1cn2nc(-c3cc(=O)n4cc(N5CCN(C)CC5)ccc4n3)cc2c(C)n1 [Cpd 170, 2-(4,6-dimethylpyrazolo[1,5-a]pyrazin-2-yl)-7-(4-methylpiperazin-1-yl)-4H-pyrido[1,2-a]pyrimidin-4-one] | progressively more SMN2 FL mRNA | less SMN2 Δ7 mRNA | progressively more SMN2 FL mRNA | less SMN2 Δ7 mRNA |
